Measured values as given in patent US20250281457A1, “TREATMENT OR PREVENTION OF DENGUE VIRAL INFECTION” (Janssen Pharmaceuticals, Inc., priority 2022, published 2025).
Where two headings read alike, the source gives them in different places.

Test: Effect of food on plasma pharmacokinetics after single oral dose of SF2a/b (Example 2)
Type: in vivo, human
Settings: both sexes, human, plasma, oral; for Tmax: read-out: tmax, Median
Description: The effect of food on the pharmacokinetics (PK) of Compound (a) was assessed in healthy participants after a single oral dose of SF2a/b, described in Example 1, administered at different dose levels in a randomized single dose, 2-period crossover study. The effect of food on the PK of Compound (a) was determined at 3 different dose levels (50 mg, 200 mg, and 800 mg) for a standardized breakfast; at one dose level (800 mg) for a high-fat, high-calorie breakfast; at two dose levels (200 mg and 800 mg) for a low-fat, low-calorie breakfast, as well as for a low-fat, high-calorie breakfast. 124 healthy adult participants (male and female, 18 to 55 years of age) were enrolled in this study. The volunteers were divided in six panels, which were organized as follows: • Panel […]: • Treatment D: A single 800-mg dose (4×200-mg tablets) of Compound (a) SF2b in fasted conditions. • Treatment E: A single 800-mg dose (4×200-mg tablets) of Compound (a) SF2b in fed conditions (standardized breakfast). • Treatments D and E (treatment sequence group 1 [n=8]: DE; treatment sequence group 2 [n=8]: ED). Panel 4, n=14: • Treatment F: A single 200-mg dose (1×200-mg tablet) of Compound (a) SF2b in fasted conditions. • Treatment G: A single 200-mg dose (1×200-mg tablet) of Compound (a) SF2b, in fed conditions (standardized breakfast). • Treatments F and G (treatment sequence group 1 [n=7]: FG; treatment sequence group 2 [n=7]: GF). Panel […]: • Treatment H: A single 50-mg dose (1×50-mg tablet) of Compound (a) SF2a in fasted conditions. • Treatment I: A single 50-mg dose (1×50-mg tablet) of Compound (a) SF2a in fed conditions (standardized breakfast). • Treatments H and I (treatment sequence group 1 [n=7]: HI; treatment sequence group 2 [n=7]: IH). Panel 6 (n=16): • Treatment J: single 800-mg dose (4×200-mg tablets) of Compound (a) administered as SF2b in fasted conditions. • Treatment K: single 800-mg dose (4×200-mg tablets) of Compound (a) administered as SF2b in fed conditions (high-fat, high-calorie breakfast). • Treatments J and K (treatment sequence group 1 [n=8]: JK; treatment sequence group 2 [n=8]: KJ). Panel 7 (n=32): • Treatment L: single 800-mg dose (4×200-mg tablets) of Compound (a) administered as SF2b in fed conditions (low-fat, low-calorie breakfast). • Treatment M: single 800-mg dose (4×200-mg tablets) of Compound (a) administered as SF2b in fed conditions (low-fat, high-calorie breakfast). • Treatment L (n=16) or Treatment M (n=16). Panel 8 (n=32): • Treatment N: single 200-mg dose (1×200-mg tablet) of Compound (a) administered as SF2b in fed conditions (low-fat, low-calorie breakfast). • Treatment O: single 200-mg dose (1×200-mg tablet) of Compound (a) administered as SF2b in fed conditions (low-fat, high-calorie breakfast). • Treatment N (n=16) or Treatment O (n=16). Tablets were administered orally, together with approximately 240 mL of non-carbonated water, in fasted or fed conditions. […] On day 1 of all treatments in each panel, the participants had fasted overnight for at least 10 hours before study drug intake. Intake of water was not allowed from 2 hours before and until 2 hours after study drug intake, except for the water used for study drug intake and breakfast. In case of intake in fed conditions, study drug was administered within 10 minutes after completing a standardized breakfast (Treatments E, G, and I), or a high-fat, high-calorie breakfast (Treatment K), a low-fat, low-calorie breakfast (Treatments L and N), or a low-fat, high-calorie breakfast (Treatments M and O). For treatments E, G, and I a standardized breakfast was served, consisting of (or its equivalent) 4 slices of bread, 2 slices of ham or cheese, butter, jelly, and 1 or 2 cups (up to 355 mL) of decaffeinated coffee or tea with milk and/or sugar, if desired (containing approximately: fat: 21 g, carbohydrates: 67 g, proteins: 19 g; total calories: 533 kcal). For treatment K in a high-fat, high-calorie breakfast was served. […]

AUC(0-inf) (200 mg, 200 mg SF2b, fed, standardized breakfast (Tables 5E, 5G), read-out: AUC∞, Geometric LS Means Treatment G): 103 µg·h/mL | Cmax (200 mg, 200 mg SF2b, fed, standardized breakfast (Tables 5E, 5G), read-out: Cmax, Geometric LS Means Treatment G): 961 ng/mL | AUC(0-t) (200 mg, 200 mg SF2b, standardized breakfast, linear mixed effects model (Table 5B), read-out: AUClast, Geometric Mean Treatment G): 102 µg·h/mL | AUC(0-inf) (200 mg, 200 mg SF2b, standardized breakfast, linear mixed effects model (Table 5B), read-out: AUC∞, Geometric Mean Treatment G): 104 µg·h/mL | Cmax (200 mg, 200 mg SF2b, standardized breakfast, linear mixed effects model (Table 5B), read-out: Cmax, Geometric Mean Treatment G): 984 ng/mL | AUC(0-t) (200 mg, Treatment F: single 200 mg (SF2b), fasted, read-out: AUClast, Geo. Mean): 61.1 µg·h/mL | AUC(0-t) (200 mg, Treatment F: single 200 mg (SF2b), fasted, read-out: AUClast, Mean): 64.8 µg·h/mL | AUC(0-t) (200 mg, Treatment F: single 200 mg (SF2b), fasted, read-out: AUClast, Median): 59 µg·h/mL | AUC(0-inf) (200 mg, Treatment F: single 200 mg (SF2b), fasted, read-out: AUC∞, Geo. Mean): 59.6 µg·h/mL | AUC(0-inf) (200 mg, Treatment F: single 200 mg (SF2b), fasted, read-out: AUC∞, Mean): 62 µg·h/mL | AUC(0-inf) (200 mg, Treatment F: single 200 mg (SF2b), fasted, read-out: AUC∞, Median): 58.5 µg·h/mL | Cmax (200 mg, Treatment F: single 200 mg (SF2b), fasted, read-out: Cmax, Geo. Mean): 573 ng/mL | Cmax (200 mg, Treatment F: single 200 mg (SF2b), fasted, read-out: Cmax, Mean): 602 ng/mL | Cmax (200 mg, Treatment F: single 200 mg (SF2b), fasted, read-out: Cmax, Median): 580 ng/mL | half-life (200 mg, Treatment F: single 200 mg (SF2b), fasted, read-out: t1/2, term, Geo. Mean (converted)): 188 h | half-life (200 mg, Treatment F: single 200 mg (SF2b), fasted, read-out: t1/2, term, Mean (converted)): 205 h | half-life (200 mg, Treatment F: single 200 mg (SF2b), fasted, read-out: t1/2, term, Median (converted)): 174 h | Tmax (200 mg, Treatment F: single 200 mg (SF2b), fasted): 7.5 h | AUC(0-t) (200 mg, Treatment G: single 200 mg (SF2b), fed, standardized breakfast, read-out: AUClast, Geo. Mean): 97.2 µg·h/mL | AUC(0-t) (200 mg, Treatment G: single 200 mg (SF2b), fed, standardized breakfast, read-out: AUClast, Mean): 100 µg·h/mL | AUC(0-t) (200 mg, Treatment G: single 200 mg (SF2b), fed, standardized breakfast, read-out: AUClast, Median): 89.5 µg·h/mL | AUC(0-inf) (200 mg, Treatment G: single 200 mg (SF2b), fed, standardized breakfast, read-out: AUC∞, Geo. Mean): 102 µg·h/mL | AUC(0-inf) (200 mg, Treatment G: single 200 mg (SF2b), fed, standardized breakfast, read-out: AUC∞, Mean): 106 µg·h/mL | AUC(0-inf) (200 mg, Treatment G: single 200 mg (SF2b), fed, standardized breakfast, read-out: AUC∞, Median): 95.3 µg·h/mL | Cmax (200 mg, Treatment G: single 200 mg (SF2b), fed, standardized breakfast, read-out: Cmax, Geo. Mean): 961 ng/mL | Cmax (200 mg, Treatment G: single 200 mg (SF2b), fed, standardized breakfast, read-out: Cmax, Mean): 996 ng/mL | Cmax (200 mg, Treatment G: single 200 mg (SF2b), fed, standardized breakfast, read-out: Cmax, Median): 892 ng/mL | half-life (200 mg, Treatment G: single 200 mg (SF2b), fed, standardized breakfast, read-out: t1/2, term, Geo. Mean (converted)): 193 h | half-life (200 mg, Treatment G: single 200 mg (SF2b), fed, standardized breakfast, read-out: t1/2, term, Mean (converted)): 198 h | half-life (200 mg, Treatment G: single 200 mg (SF2b), fed, standardized breakfast, read-out: t1/2, term, Median (converted)): 208 h | Tmax (200 mg, Treatment G: single 200 mg (SF2b), fed, standardized breakfast): 8 h | AUC(0-t) (800 mg, 800 mg SF2b, fasted, linear mixed effects model (Table 5A), read-out: AUClast, Geometric Mean Treatment D): 140 µg·h/mL | AUC(0-inf) (800 mg, 800 mg SF2b, fasted, linear mixed effects model (Table 5A), read-out: AUC∞, Geometric Mean Treatment D): 148 µg·h/mL | Cmax (800 mg, 800 mg SF2b, fasted, linear mixed effects model (Table 5A), read-out: Cmax, Geometric Mean Treatment D): 1220 ng/mL | AUC(0-t) (800 mg, 800 mg SF2b, fasted, read-out: AUClast, Geometric LS Means Treatment J): 107 µg·h/mL | AUC(0-inf) (800 mg, 800 mg SF2b, fasted, read-out: AUC∞, Geometric LS Means Treatment J): 110 µg·h/mL | Cmax (800 mg, 800 mg SF2b, fasted, read-out: Cmax, Geometric LS Means Treatment J): 991 ng/mL | AUC(0-t) (800 mg, 800 mg SF2b, fed, high-fat, high-calorie breakfast, read-out: AUClast, Geometric LS Means Treatment K): 421 µg·h/mL | AUC(0-inf) (800 mg, 800 mg SF2b, fed, high-fat, high-calorie breakfast, read-out: AUC∞, Geometric LS Means Treatment K): 422 µg·h/mL
SMILES: COc1cc(NC(C(=O)c2c[nH]c3ccc(OC(F)(F)F)cc23)c2ccc(Cl)cc2OC)cc(S(C)(=O)=O)c1 (stereo not drawn) [Compound (a)]
